Values joined by “and” are separate entries in the source; they are usually repeats but may differ in a detail not shown here. Equal values may be shown once. Read-outs that look alike come from different tables or passages of the source.
Experiments:
[1] = tested on: AOM plus DSS induced colonic inflammation; conditions: for AOM-DSS-Induced Inflammation Score: two weeks, male F344 rats
Experimental: Male F344 rats at 8 weeks of age treated with AOM (15 mg/Kg BW) and exposed to 2% DSS for three days. […] Further, the inflammation was scored by following below criteria:
Inflammation Score based on histological observations using the modified Sydney classification for colonic inflammation:
Following score criteria has been applied: • i. Score 0: No inflammation or changes in the colonic crypt morphology • ii. Score 1. Presence of neutrophil infiltration and chronic lymphocytic inflammation. • iii. Score 2. Surface epithelial damage, mild atrophy, lymphoid follicles • iv. Score 3: Severe atrophy and intestinal metaplasia.

AOM-induced colon tumors = conditions: for % AdCA Inhibition (incidence) / % AdCA Inhibition (multiplicity) / % Inv AdCA Inhibition (incidence) / % Inv AdCA Inhibition (multiplicity) / % Non-Inv AdCA Inhibition (incidence) / % Non-Inv AdCA Inhibition (multiplicity) / % adenoma Inhibition (incidence) / % adenoma Inhibition (multiplicity) / % of CRC Tumor Inhibition (incidence) / % of CRC Tumor Inhibition (multiplicity) / AdCA Incidence (% Rats with AdCa) / AdCA Incidence (rats with AdCa/rats) / AdCA Multiplicity (Mean ± SEM) / Adenoma Incidence (% Rats with Adenomas) / Adenoma Incidence (rats with adenomas/rats) / Adenoma Multiplicity (Mean ± SEM) / Invasive AdCA Incidence (% Rats with Invasive AdCa) / Invasive AdCA Incidence (rats with Invasive AdCa/rats) / Invasive AdCA Multiplicity (Mean ± SEM) / Multiplicity Total CRC Tumors (Adenoma + AdCa) (Mean ± SEM) / Non-Inv AdCa Incidence (% Rats with Non-Inv AdCa) / Non-Inv AdCa Incidence (rats with Non-Inv AdCa/rats) / Non-Inv AdCa Multiplicity (Mean ± SEM) / Total CRC Tumors (Adenoma + AdCa) incidence (% rats) / Total CRC Tumors (Adenoma + AdCa) incidence (rats with tumors/rats): AOM-treated male F344 rats
Experimental: After 42 weeks of experimental diet feeding and total 52 weeks of experimental duration, the rats were necropsied. After necropsy of the rats, the colonic tumors were analyzed histologically. Histopathological evaluation colonic tumor has been completed by two pathologists independently. Colonic tumors were histopathologically classified to adenomas or adenocarcinomas either exophytic (non-invasive) or endophytic (invasive).
Colonic tumors (CTs) were induced by colon specific carcinogen, azoxymethane (AOM) (15 mg/kg by wt, once weekly for 2 weeks) in F344 rats at 8 weeks' age. […] Rats were killed by CO2 asphyxiation 36 weeks after second AOM and the colons were removed, rinsed in PBS, opened longitudinally, and flattened on a filter paper. The location and size of each tumor were noted. Tumors were removed, snap frozen, or fixed in 10% buffered formalin for 24 hours and transferred to 80% ethanol for histopathological analysis. The number and type of colon tumors (adenoma and adenocarcinoma) were analyzed histologically blinded to treatment groups and compared with control diet fed rat colonic tumors.

[2] = 800 ppm in diet, saline treated male F344 rats

CC1(C)Cc2c(-c3ccccc3)c(-c3ccc(Cl)cc3)c(CC(=O)NCC(=O)O)n2C1 [LFA-9, licofelone-glycine]
AOM-DSS-Induced Inflammation Score ([1]; 100 ppm in diet): 1
AOM-DSS-Induced Inflammation Score ([1]; 200 ppm in diet): 0 to 1
AOM-DSS-Induced Inflammation Score ([1]; 400 ppm in diet): 0
AOM-DSS-Induced Inflammation Score ([1]; 600 ppm in diet): 0
AOM-DSS-Induced Inflammation Score ([1]; 800 ppm in diet): 0
infiltration of inflammatory cells in colonic mucosa and submucosa ([1]; >100 ppm in diet, AOM-DSS rats): significantly suppressed infiltration of inflammatory cells
inflammation ([1]; >100 ppm in diet, AOM/DSS rats): completely blocked inflammation
inflammation score ([1]; all rats fed LFA-9, lowest to highest doses (100-800 ppm)): Score 1 (lowest to highest doses) or no inflammation
toxicity in male F344 rats ([1]; up to 800 ppm in diet): did not induce significant toxicity
% AdCA Inhibition (incidence) (AOM-induced colon tumors; 200 ppm in diet): 60%
% AdCA Inhibition (multiplicity) (AOM-induced colon tumors; 200 ppm in diet): 77%
% Inv AdCA Inhibition (incidence) (AOM-induced colon tumors; 200 ppm in diet): 85.1%
% Inv AdCA Inhibition (multiplicity) (AOM-induced colon tumors; 200 ppm in diet): 86.0%
% Non-Inv AdCA Inhibition (incidence) (AOM-induced colon tumors; 200 ppm in diet): 63.0%
% Non-Inv AdCA Inhibition (multiplicity) (AOM-induced colon tumors; 200 ppm in diet): 72.9%
% adenoma Inhibition (incidence) (AOM-induced colon tumors; 200 ppm in diet): 53%
% adenoma Inhibition (multiplicity) (AOM-induced colon tumors; 200 ppm in diet): 38.3% and 38.27%
% of CRC Tumor Inhibition (incidence) (AOM-induced colon tumors; 200 ppm in diet): 47.5%
% of CRC Tumor Inhibition (multiplicity) (AOM-induced colon tumors; 200 ppm in diet): 64% and 64.05%
AdCA Incidence (% Rats with AdCa) (AOM-induced colon tumors; 200 ppm in diet): (33.3%)
AdCA Incidence (rats with AdCa/rats) (AOM-induced colon tumors; 200 ppm in diet): 10/30
AdCA Multiplicity (Mean ± SEM) (AOM-induced colon tumors; 200 ppm in diet): 0.37±0.07 Tumors/Rat
Adenoma Incidence (% Rats with Adenomas) (AOM-induced colon tumors; 200 ppm in diet): (30.0%)
Adenoma Incidence (rats with adenomas/rats) (AOM-induced colon tumors; 200 ppm in diet): 9/30
Adenoma Multiplicity (Mean ± SEM) (AOM-induced colon tumors; 200 ppm in diet): 0.50±0.07 Tumors/Rat
Invasive AdCA Incidence (% Rats with Invasive AdCa) (AOM-induced colon tumors; 200 ppm in diet): (6.66%)
Invasive AdCA Incidence (rats with Invasive AdCa/rats) (AOM-induced colon tumors; 200 ppm in diet): 2/30
Invasive AdCA Multiplicity (Mean ± SEM) (AOM-induced colon tumors; 200 ppm in diet): 0.07 ± 0.02 Tumors/Rat
Multiplicity Total CRC Tumors (Adenoma + AdCa) (Mean ± SEM) (AOM-induced colon tumors; 200 ppm in diet): 0.87 ± 0.12 Tumors/Rat
Non-Inv AdCa Incidence (% Rats with Non-Inv AdCa) (AOM-induced colon tumors; 200 ppm in diet): (26.7%)
Non-Inv AdCa Incidence (rats with Non-Inv AdCa/rats) (AOM-induced colon tumors; 200 ppm in diet): 8/30
Non-Inv AdCa Multiplicity (Mean ± SEM) (AOM-induced colon tumors; 200 ppm in diet): 0.30 ± 0.05 Tumors/Rat
Total CRC Tumors (Adenoma + AdCa) incidence (% rats) (AOM-induced colon tumors; 200 ppm in diet): (46.6%)
Total CRC Tumors (Adenoma + AdCa) incidence (rats with tumors/rats) (AOM-induced colon tumors; 200 ppm in diet): 14/30
% AdCA Inhibition (incidence) (AOM-induced colon tumors; 400 ppm in diet): 67.9%
% AdCA Inhibition (multiplicity) (AOM-induced colon tumors; 400 ppm in diet): 81.3%
% Inv AdCA Inhibition (incidence) (AOM-induced colon tumors; 400 ppm in diet): 77.4%%
% Inv AdCA Inhibition (multiplicity) (AOM-induced colon tumors; 400 ppm in diet): 80.0%
% Non-Inv AdCA Inhibition (incidence) (AOM-induced colon tumors; 400 ppm in diet): 72.3%
% Non-Inv AdCA Inhibition (multiplicity) (AOM-induced colon tumors; 400 ppm in diet): 82.0%
% adenoma Inhibition (incidence) (AOM-induced colon tumors; 400 ppm in diet): 53%
% adenoma Inhibition (multiplicity) (AOM-induced colon tumors; 400 ppm in diet): 46.9%
% of CRC Tumor Inhibition (incidence) (AOM-induced colon tumors; 400 ppm in diet): 55.5% and 55.0%
% of CRC Tumor Inhibition (multiplicity) (AOM-induced colon tumors; 400 ppm in diet): 69.1% and 69.08%
AdCA Incidence (% Rats with AdCa) (AOM-induced colon tumors; 400 ppm in diet): (26.7%)
AdCA Incidence (rats with AdCa/rats) (AOM-induced colon tumors; 400 ppm in diet): 8/30
AdCA Multiplicity (Mean ± SEM) (AOM-induced colon tumors; 400 ppm in diet): 0.30±0.07 Tumors/Rat
Adenoma Incidence (% Rats with Adenomas) (AOM-induced colon tumors; 400 ppm in diet): (30.0%)
Adenoma Incidence (rats with adenomas/rats) (AOM-induced colon tumors; 400 ppm in diet): 9/30
Adenoma Multiplicity (Mean ± SEM) (AOM-induced colon tumors; 400 ppm in diet): 0.43±0.06 Tumors/Rat
Invasive AdCA Incidence (% Rats with Invasive AdCa) (AOM-induced colon tumors; 400 ppm in diet): (10.0%)
Invasive AdCA Incidence (rats with Invasive AdCa/rats) (AOM-induced colon tumors; 400 ppm in diet): 3/30
Invasive AdCA Multiplicity (Mean ± SEM) (AOM-induced colon tumors; 400 ppm in diet): 0.10 ± 0.02 Tumors/Rat
Multiplicity Total CRC Tumors (Adenoma + AdCa) (Mean ± SEM) (AOM-induced colon tumors; 400 ppm in diet): 0.73 ± 0.10 Tumors/Rat
Non-Inv AdCa Incidence (% Rats with Non-Inv AdCa) (AOM-induced colon tumors; 400 ppm in diet): (20.0%)
Non-Inv AdCa Incidence (rats with Non-Inv AdCa/rats) (AOM-induced colon tumors; 400 ppm in diet): 6/30
Non-Inv AdCa Multiplicity (Mean ± SEM) (AOM-induced colon tumors; 400 ppm in diet): 0.20 ± 0.04 Tumors/Rat
Total CRC Tumors (Adenoma + AdCa) incidence (% rats) (AOM-induced colon tumors; 400 ppm in diet): (40.0%)
Total CRC Tumors (Adenoma + AdCa) incidence (rats with tumors/rats) (AOM-induced colon tumors; 400 ppm in diet): 12/30
% AdCA Inhibition (incidence) (AOM-induced colon tumors; 800 ppm in diet): 76%
% AdCA Inhibition (multiplicity) (AOM-induced colon tumors; 800 ppm in diet): 85.7%
% Inv AdCA Inhibition (incidence) (AOM-induced colon tumors; 800 ppm in diet): 92.5%
% Inv AdCA Inhibition (multiplicity) (AOM-induced colon tumors; 800 ppm in diet): 94.0%
% Non-Inv AdCA Inhibition (incidence) (AOM-induced colon tumors; 800 ppm in diet): 72.3%
% Non-Inv AdCA Inhibition (multiplicity) (AOM-induced colon tumors; 800 ppm in diet): 82.0%
% adenoma Inhibition (incidence) (AOM-induced colon tumors; 800 ppm in diet): 58.2%
% adenoma Inhibition (multiplicity) (AOM-induced colon tumors; 800 ppm in diet): 42%
% of CRC Tumor Inhibition (incidence) (AOM-induced colon tumors; 800 ppm in diet): 47.5%
% of CRC Tumor Inhibition (multiplicity) (AOM-induced colon tumors; 800 ppm in diet): 71.1% and 71.07%
AdCA Incidence (% Rats with AdCa) (AOM-induced colon tumors; 800 ppm in diet): (20.0%)
AdCA Incidence (rats with AdCa/rats) (AOM-induced colon tumors; 800 ppm in diet): 6/30
AdCA Multiplicity (Mean ± SEM) (AOM-induced colon tumors; 800 ppm in diet): 0.23±0.05 Tumors/Rat
Adenoma Incidence (% Rats with Adenomas) (AOM-induced colon tumors; 800 ppm in diet): (26.7%)
Adenoma Incidence (rats with adenomas/rats) (AOM-induced colon tumors; 800 ppm in diet): 8/30
Adenoma Multiplicity (Mean ± SEM) (AOM-induced colon tumors; 800 ppm in diet): 0.47±0.06 Tumors/Rat
Invasive AdCA Incidence (% Rats with Invasive AdCa) (AOM-induced colon tumors; 800 ppm in diet): (3.33%)
Invasive AdCA Incidence (rats with Invasive AdCa/rats) (AOM-induced colon tumors; 800 ppm in diet): 1/30
Invasive AdCA Multiplicity (Mean ± SEM) (AOM-induced colon tumors; 800 ppm in diet): 0.03 ± 0.01 Tumors/Rat
Multiplicity Total CRC Tumors (Adenoma + AdCa) (Mean ± SEM) (AOM-induced colon tumors; 800 ppm in diet): 0.70 ± 0.10 Tumors/Rat
Non-Inv AdCa Incidence (% Rats with Non-Inv AdCa) (AOM-induced colon tumors; 800 ppm in diet): (20.0%)
Non-Inv AdCa Incidence (rats with Non-Inv AdCa/rats) (AOM-induced colon tumors; 800 ppm in diet): 6/30
Non-Inv AdCa Multiplicity (Mean ± SEM) (AOM-induced colon tumors; 800 ppm in diet): 0.20 ± 0.04 Tumors/Rat
Total CRC Tumors (Adenoma + AdCa) incidence (% rats) (AOM-induced colon tumors; 800 ppm in diet): (46.6%)
Total CRC Tumors (Adenoma + AdCa) incidence (rats with tumors/rats) (AOM-induced colon tumors; 800 ppm in diet): 14/30
AdCA Incidence (AOM-induced colon tumors; [2]): 0
AdCA Multiplicity (AOM-induced colon tumors; [2]): 0 Tumors/Rat
Adenoma Incidence (AOM-induced colon tumors; [2]): 0
Adenoma Multiplicity (AOM-induced colon tumors; [2]): 0 Tumors/Rat
Invasive AdCA Incidence (AOM-induced colon tumors; [2]): 0
Invasive AdCA Multiplicity (AOM-induced colon tumors; [2]): 0 Tumors/Rat
Multiplicity Total CRC Tumors (Adenoma + AdCa) (AOM-induced colon tumors; [2]): 0 Tumors/Rat
Non-Inv AdCa Incidence (AOM-induced colon tumors; [2]): 0
Non-Inv AdCa Multiplicity (AOM-induced colon tumors; [2]): 0 Tumors/Rat
Total CRC Tumors (Adenoma + AdCa) incidence (AOM-induced colon tumors; [2]): 0
body weight retardation and observable toxicities (AOM-induced colon tumors; chronic administration up to 800 ppm in diet, F344 rats): did not show any significant body weight retardation and any observable toxicities
